Assay results from ChEMBL document CHEMBL3217615, “Novel 3,5-bis(arylidiene)-4-piperidone based monocarbonyl analogs of curcumin: anticancer activity evaluation and mode of action study” (2014).

Columns and labels:
Format in all cases: functional
[1] = tested on: COLO 205; assay: Induction of apoptosis in human COLO205 cells assessed as viable cells level at 10 uM after 24 hrs by Annexin V/propidium iodide staining-based fluorescence microscopy
[2] = Growth inhibition of human OVCAR4 cells assessed as cell growth at 10^-6 M after 48 hrs by sulforhodamine B assay; conditions: OVCAR-4, 48 h, read-out: Activity
[3] = Growth inhibition of human UACC62 cells assessed as cell growth at 10^-6 M after 48 hrs by sulforhodamine B assay; conditions: UACC-62, 48 h, read-out: Activity
[4] = tested on: SK-MEL-28; assay: Growth inhibition of human SK-MEL-28 cells assessed as cell growth at 10^-6 M after 48 hrs by sulforhodamine B assay; conditions: SK-MEL-28, 48 h, read-out: Activity
[5] = tested on: M14; assay: Growth inhibition of human M14 cells assessed as cell growth at 10^-6 M after 48 hrs by sulforhodamine B assay; conditions: M14, 48 h, read-out: Activity
[6] = Growth inhibition of human HCC2998 cells assessed as cell growth at 10^-6 M after 48 hrs by sulforhodamine B assay; conditions: HCC 2998, 48 h, read-out: Activity
[7] = tested on: NCI-H226; assay: Growth inhibition of human NCI-H226 cells assessed as cell growth at 10^-6 M after 48 hrs by sulforhodamine B assay; conditions: NCI-H226, 48 h, read-out: Activity
[8] = tested on: SN12C; assay: Growth inhibition of human SN12C cells assessed as cell growth at 10^-7 M after 48 hrs by sulforhodamine B assay; conditions: read-out: Activity
[9] = tested on: SK-OV-3; assay: Growth inhibition of human SKOV3 cells assessed as cell growth at 10^-7 M after 48 hrs by sulforhodamine B assay; conditions: SK-OV-3, 48 h, read-out: Activity
[10] = tested on: U-251; assay: Growth inhibition of human U251 cells assessed as cell growth at 10^-5 M after 48 hrs by sulforhodamine B assay; conditions: U-251, 48 h, read-out: Activity
[11] = Growth inhibition of human BT549 cells assessed as cell growth at 10^-6 M after 48 hrs by sulforhodamine B assay; conditions: BT-549, 48 h, read-out: Activity
[12] = tested on: MCF7; assay: Growth inhibition of human MCF7 cells assessed as cell growth at 10^-6 M after 48 hrs by sulforhodamine B assay; conditions: MCF7, 48 h, read-out: Activity
[13] = tested on: SK-MEL-28; assay: Growth inhibition of human SK-MEL-28 cells assessed as cell growth at 10^-4 M after 48 hrs by sulforhodamine B assay; conditions: SK-MEL-28, 48 h, read-out: Activity
[14] = Growth inhibition of human SF539 cells assessed as cell growth at 10^-4 M after 48 hrs by sulforhodamine B assay; conditions: SF-539, 48 h, read-out: Activity
[15] = tested on: SF-268; assay: Growth inhibition of human SF268 cells assessed as cell growth at 10^-4 M after 48 hrs by sulforhodamine B assay; conditions: SF-268, 48 h, read-out: Activity
[16] = Growth inhibition of human HOP92 cells assessed as cell growth at 10^-4 M after 48 hrs by sulforhodamine B assay; conditions: HOP-92, 48 h, read-out: Activity
[17] = tested on: A549; assay: Growth inhibition of human A549/ATCC cells assessed as cell growth at 10^-4 M after 48 hrs by sulforhodamine B assay; conditions: A549, 48 h, read-out: Activity
[18] = tested on: RPMI-8226; assay: Growth inhibition of human RPMI8226 cells assessed as cell growth at 10^-4 M after 48 hrs by sulforhodamine B assay; conditions: RPMI-8226, 48 h, read-out: Activity
[19] = tested on: MDA-MB-435; assay: Growth inhibition of human MDA-MB-435 cells assessed as cell growth at 10^-8 M after 48 hrs by sulforhodamine B assay; conditions: MDA-MB-435, 48 h; for growth at 0.01 µM: read-out: Activity; for TGI: read-out: pTGI (converted)
[20] = tested on: SW-620; assay: Growth inhibition of human SW620 cells assessed as cell growth at 10^-8 M after 48 hrs by sulforhodamine B assay; conditions: SW-620, 48 h; for growth at 0.01 µM: read-out: Activity; for TGI: read-out: pTGI (converted)
[21] = tested on: NCI-H460; assay: Growth inhibition of human NCI-H460 cells assessed as cell growth at 10^-8 M after 48 hrs by sulforhodamine B assay; conditions: NCI-H460, 48 h; for growth at 0.01 µM: read-out: Activity; for TGI: read-out: pTGI (converted)
[22] = tested on: DU-145; assay: Growth inhibition of human DU145 cells after 48 hrs by sulforhodamine B assay; conditions: DU-145, 48 h; for CC50: read-out: LC50 (the source's name)
[23] = tested on: ACHN; assay: Growth inhibition of human ACHN cells after 48 hrs by sulforhodamine B assay; conditions: for CC50: read-out: LC50 (the source's name)
[24] = tested on: SNB-75; assay: Growth inhibition of human SNB75 cells after 48 hrs by sulforhodamine B assay; conditions: SNB-75, 48 h; for CC50: read-out: LC50 (the source's name)
[25] = Growth inhibition of human SF295 cells after 48 hrs by sulforhodamine B assay; conditions: SF-295, 48 h; for CC50: read-out: LC50 (the source's name)
[26] = tested on: NCI-H322M; assay: Growth inhibition of human NCI-H322M cells after 48 hrs by sulforhodamine B assay; conditions: for CC50: read-out: LC50 (the source's name)
[27] = tested on: NCI-H226; assay: Growth inhibition of human NCI-H226 cells after 48 hrs by sulforhodamine B assay; conditions: NCI-H226, 48 h; for CC50: read-out: LC50 (the source's name)
[28] = tested on: ACHN; assay: Growth inhibition of human ACHN cells assessed as cell growth at 10^-4 M after 48 hrs by sulforhodamine B assay; conditions: read-out: Activity
[29] = tested on: SK-MEL-5; assay: Growth inhibition of human SK-MEL-5 cells assessed as cell growth at 10^-7 M after 48 hrs by sulforhodamine B assay; conditions: SK-MEL-5, 48 h, read-out: Activity
[30] = tested on: SNB-19; assay: Growth inhibition of human SNB19 cells assessed as cell growth at 10^-7 M after 48 hrs by sulforhodamine B assay; conditions: SNB-19, 48 h, read-out: Activity
[31] = tested on: NCI-H322M; assay: Growth inhibition of human NCI-H322M cells assessed as cell growth at 10^-7 M after 48 hrs by sulforhodamine B assay; conditions: read-out: Activity
[32] = Growth inhibition of human HOP92 cells assessed as cell growth at 10^-7 M after 48 hrs by sulforhodamine B assay; conditions: HOP-92, 48 h, read-out: Activity
[33] = tested on: MCF7; assay: Growth inhibition of human MCF7 cells assessed as cell growth at 10^-8 M after 48 hrs by sulforhodamine B assay; conditions: MCF7, 48 h; for growth at 0.01 µM: read-out: Activity; for TGI: read-out: pTGI (converted)
[34] = tested on: PC-3; assay: Growth inhibition of human PC3 cells assessed as cell growth at 10^-8 M after 48 hrs by sulforhodamine B assay; conditions: PC-3, 48 h; for growth at 0.01 µM: read-out: Activity; for TGI: read-out: pTGI (converted)

O=C1/C(=C/c2ccc(Cl)cc2Cl)CN(S(=O)(=O)c2ccccc2)C/C1=C\c1ccc(Cl)cc1Cl
Activity [1]: 29%
growth at 1 µM [2]: 10%
growth at 1 µM [3]: 45%
growth at 1 µM [4]: 93%
growth at 1 µM [5]: 93%
growth at 1 µM [6]: 13%
growth at 1 µM [7]: 52%
growth at 0.1 µM [8]: 92%
growth at 0.1 µM [9]: 102%
growth at 10 µM [10]: -66%
growth at 1 µM [11]: 50%
growth at 1 µM [12]: 14%
growth at 100 µM [13]: 42%
growth at 100 µM [14]: -40%
growth at 100 µM [15]: 4%
growth at 100 µM [16]: -20%
growth at 100 µM [17]: -33%
growth at 100 µM [18]: -35%
GI50 [19]: 977 nM
LC50 [19]: > 100000 nM
growth at 0.01 µM [19]: 90%
TGI [19]: 3240 nM
GI50 [20]: 316 nM
LC50 [20]: > 100000 nM
growth at 0.01 µM [20]: 97%
TGI [20]: 2820 nM
GI50 [21]: 209 nM
LC50 [21]: 955 nM
growth at 0.01 µM [21]: 103%
TGI [21]: 447 nM
GI50 [22]: 446 nM
TGI [22]: 18800 nM
CC50 [22]: > 100000 nM
GI50 [23]: 874 nM
TGI [23]: 4560 nM
CC50 [23]: > 100000 nM
GI50 [24]: 432 nM
TGI [24]: 7290 nM
CC50 [24]: > 100000 nM
GI50 [25]: 345 nM
TGI [25]: 6670 nM
CC50 [25]: > 100000 nM
GI50 [26]: 680 nM
TGI [26]: 3560 nM
CC50 [26]: > 100000 nM
GI50 [27]: 1040 nM
TGI [27]: 2870 nM
CC50 [27]: 7920 nM
growth at 100 µM [28]: -17%
growth at 0.1 µM [29]: 98%
growth at 0.1 µM [30]: 89%
growth at 0.1 µM [31]: 123%
growth at 0.1 µM [32]: 77%
GI50 [33]: 302 nM
LC50 [33]: > 100000 nM
growth at 0.01 µM [33]: 96%
TGI [33]: 100000 nM
GI50 [34]: 288 nM
LC50 [34]: > 100000 nM
growth at 0.01 µM [34]: 100%
TGI [34]: 1020 nM

Cc1ccc(S(=O)(=O)N2C/C(=C\c3cc(F)cc(F)c3)C(=O)/C(=C/c3cc(F)cc(F)c3)C2)cc1
Activity [1]: 24%
growth at 1 µM [2]: 26%
growth at 1 µM [3]: -38%
growth at 1 µM [4]: 29%
growth at 1 µM [5]: 12%
growth at 1 µM [6]: 35%
growth at 1 µM [7]: 90%
growth at 0.1 µM [8]: 94%
growth at 0.1 µM [9]: 106%
growth at 10 µM [10]: -97.9%
growth at 1 µM [11]: -4%
growth at 1 µM [12]: 12%
growth at 100 µM [13]: -98%
growth at 100 µM [14]: -94%
growth at 100 µM [15]: -88%
growth at 100 µM [16]: -58%
growth at 100 µM [17]: -34%
growth at 100 µM [18]: -50%
GI50 [19]: 240 nM
LC50 [19]: 3630 nM
growth at 0.01 µM [19]: 96%
TGI [19]: 692 nM
GI50 [20]: 72.4 nM
LC50 [20]: 1450 nM
growth at 0.01 µM [20]: 99%
TGI [20]: 302 nM
GI50 [21]: 832 nM
LC50 [21]: 9120 nM
growth at 0.01 µM [21]: 103%
TGI [21]: 2880 nM
GI50 [22]: 1240 nM
TGI [22]: 3080 nM
CC50 [22]: 7620 nM
GI50 [23]: 246 nM
TGI [23]: 622 nM
CC50 [23]: 2390 nM
GI50 [24]: 1990 nM
TGI [24]: 5900 nM
CC50 [24]: 26200 nM
GI50 [25]: 466 nM
TGI [25]: 2500 nM
CC50 [25]: 15700 nM
GI50 [26]: 4700 nM
TGI [26]: 22800 nM
CC50 [26]: > 100000 nM
GI50 [27]: 8620 nM
TGI [27]: 39600 nM
CC50 [27]: > 100000 nM
growth at 100 µM [28]: -94%
growth at 0.1 µM [29]: 89%
growth at 0.1 µM [30]: 82%
growth at 0.1 µM [31]: 103%
growth at 0.1 µM [32]: 69%
GI50 [33]: 174 nM
LC50 [33]: 6920 nM
growth at 0.01 µM [33]: 89%
TGI [33]: 1450 nM
GI50 [34]: 245 nM
LC50 [34]: 9330 nM
growth at 0.01 µM [34]: 93%
TGI [34]: 794 nM
